# Columns and labels:
# PI3Kδ = PI3Kδ (Homo sapiens, UniProt O00329); test: Fluorescent (HTRF) determination of PI3 kinase enzyme activity, delta isoform; type: biochemical; parameters: purchased Millipore (assay kit); details: Table 1, unit printed in cell; read-out: IC50 Pi3Kδ
# Description: (§1) Phosphoinositide 3 kinases (PI3K) belong to a class of lipid kinases that play a critical role in the regulation of several key cellular processes. The PI3K are capable of phosphorylating the 3-hydroxy position of phosphoinositols thereby generating second messengers involved in downstream signalling events. The homogenous time resolved fluorescence (HTRF) assay allows detection of 3,4,5-triphosphate (PIP3) formed as a result of phosphorylation of phosphotidylinositol 4,5-biphosphate (PIP2) by PI3K isoforms such as α, β, γ or δ.
# (§2) PI3K isoform activity for α, β, γ or δ was determined using a PI3K human HTRF™ Assay Kit (Millipore, Billerica, Mass.) with modifications. All incubations were carried out at room temperature. Briefly, 0.5 μl of 40× inhibitor (in 100% DMSO) or 100% DMSO were added to each well of a 384-well white plate (Greiner Bio-One, Monroe, N.C.) containing 14.5 μl 1× reaction buffer /PIP2 (10 mM MgCl2, 5 mM DTT, 1.38 μM PIP2) mix with or without enzyme, followed by 5 μl/well of 400 μM ATP and incubated for an additional 30 minutes. Reaction was terminated by adding 5 μl/well stop solution (Millipore, Billerica, Mass.). […] HRTF ratio was measured on a microplate reader (BMG Labtech., Germany) at an excitation wavelength of 337 nm and emission wavelengths of 665 and 615 nm with an integration time of 400 msec counting delay of 50 msec.
# Pi3K γ = Pi3K γ (Homo sapiens, UniProt P48736); test: Fluorescent (HTRF) determination of PI3 kinase enzyme activity, gamma isoform; type: biochemical; parameters: purchased Millipore (assay kit); details: Table 1, unit printed in cell; read-out: IC50 Pi3K γ
# Pi3K γ, sequence (P48736 whole entry, canonical isoform): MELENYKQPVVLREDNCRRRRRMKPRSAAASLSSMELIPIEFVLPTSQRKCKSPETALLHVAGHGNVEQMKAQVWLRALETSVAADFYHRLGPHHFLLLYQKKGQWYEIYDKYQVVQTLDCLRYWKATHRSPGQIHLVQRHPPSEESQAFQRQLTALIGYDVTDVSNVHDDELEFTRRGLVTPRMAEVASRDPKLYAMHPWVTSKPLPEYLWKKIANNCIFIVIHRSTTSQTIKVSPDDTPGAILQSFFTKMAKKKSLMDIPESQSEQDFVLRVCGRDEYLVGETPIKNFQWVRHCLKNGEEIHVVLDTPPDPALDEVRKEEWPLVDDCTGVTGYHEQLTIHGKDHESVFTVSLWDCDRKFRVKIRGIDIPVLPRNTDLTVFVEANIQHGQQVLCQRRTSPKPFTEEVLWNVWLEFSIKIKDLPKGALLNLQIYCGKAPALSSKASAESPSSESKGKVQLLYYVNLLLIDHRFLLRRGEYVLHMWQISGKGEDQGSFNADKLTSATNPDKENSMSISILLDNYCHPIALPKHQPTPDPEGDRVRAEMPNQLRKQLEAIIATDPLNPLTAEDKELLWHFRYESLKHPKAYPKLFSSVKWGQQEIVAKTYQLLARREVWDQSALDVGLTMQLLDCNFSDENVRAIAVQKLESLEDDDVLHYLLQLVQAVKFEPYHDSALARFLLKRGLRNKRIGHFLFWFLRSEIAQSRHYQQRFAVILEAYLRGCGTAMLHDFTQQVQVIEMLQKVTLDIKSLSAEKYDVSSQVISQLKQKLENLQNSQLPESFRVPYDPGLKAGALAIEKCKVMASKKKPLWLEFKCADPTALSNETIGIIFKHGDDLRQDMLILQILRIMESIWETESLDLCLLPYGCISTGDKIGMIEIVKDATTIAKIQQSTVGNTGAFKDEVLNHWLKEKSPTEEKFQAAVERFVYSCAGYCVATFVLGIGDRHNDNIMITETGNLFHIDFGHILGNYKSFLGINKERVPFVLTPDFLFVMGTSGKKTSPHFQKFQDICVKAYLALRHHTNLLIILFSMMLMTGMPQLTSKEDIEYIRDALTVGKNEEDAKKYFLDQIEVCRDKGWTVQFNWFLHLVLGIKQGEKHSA
# Description: as §1, §2
# [1] = reported at 55th ASH Annual Meeting 2013; cited from earlier work
# PI3Kδ, sequence (O00329 whole entry, canonical isoform): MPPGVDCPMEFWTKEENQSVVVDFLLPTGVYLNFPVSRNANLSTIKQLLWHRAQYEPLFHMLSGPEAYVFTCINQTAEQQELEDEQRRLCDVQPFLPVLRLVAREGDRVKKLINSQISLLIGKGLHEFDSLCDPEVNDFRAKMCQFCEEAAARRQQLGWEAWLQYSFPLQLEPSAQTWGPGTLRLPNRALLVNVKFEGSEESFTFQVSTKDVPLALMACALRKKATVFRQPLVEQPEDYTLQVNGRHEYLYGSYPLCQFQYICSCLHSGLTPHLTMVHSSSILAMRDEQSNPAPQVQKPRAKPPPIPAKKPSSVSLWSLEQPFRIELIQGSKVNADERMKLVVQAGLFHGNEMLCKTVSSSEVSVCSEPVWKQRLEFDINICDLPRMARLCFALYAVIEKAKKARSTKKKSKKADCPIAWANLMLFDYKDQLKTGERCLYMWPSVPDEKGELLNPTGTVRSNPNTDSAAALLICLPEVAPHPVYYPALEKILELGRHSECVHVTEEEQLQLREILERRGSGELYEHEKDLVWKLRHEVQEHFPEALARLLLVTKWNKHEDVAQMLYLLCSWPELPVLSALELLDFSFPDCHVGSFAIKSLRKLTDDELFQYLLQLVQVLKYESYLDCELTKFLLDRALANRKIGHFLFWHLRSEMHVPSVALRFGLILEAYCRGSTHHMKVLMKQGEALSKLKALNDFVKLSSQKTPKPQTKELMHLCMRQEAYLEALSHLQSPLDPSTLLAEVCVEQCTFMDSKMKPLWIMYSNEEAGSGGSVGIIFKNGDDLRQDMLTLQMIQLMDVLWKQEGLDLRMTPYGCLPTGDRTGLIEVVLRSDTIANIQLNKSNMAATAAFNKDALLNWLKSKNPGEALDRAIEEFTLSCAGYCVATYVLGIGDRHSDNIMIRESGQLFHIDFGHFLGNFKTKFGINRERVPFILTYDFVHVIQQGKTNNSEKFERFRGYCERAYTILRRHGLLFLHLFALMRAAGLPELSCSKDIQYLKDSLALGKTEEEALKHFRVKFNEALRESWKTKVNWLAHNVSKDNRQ
# PI3Kδ, sequence (P27986 whole entry partner, canonical isoform): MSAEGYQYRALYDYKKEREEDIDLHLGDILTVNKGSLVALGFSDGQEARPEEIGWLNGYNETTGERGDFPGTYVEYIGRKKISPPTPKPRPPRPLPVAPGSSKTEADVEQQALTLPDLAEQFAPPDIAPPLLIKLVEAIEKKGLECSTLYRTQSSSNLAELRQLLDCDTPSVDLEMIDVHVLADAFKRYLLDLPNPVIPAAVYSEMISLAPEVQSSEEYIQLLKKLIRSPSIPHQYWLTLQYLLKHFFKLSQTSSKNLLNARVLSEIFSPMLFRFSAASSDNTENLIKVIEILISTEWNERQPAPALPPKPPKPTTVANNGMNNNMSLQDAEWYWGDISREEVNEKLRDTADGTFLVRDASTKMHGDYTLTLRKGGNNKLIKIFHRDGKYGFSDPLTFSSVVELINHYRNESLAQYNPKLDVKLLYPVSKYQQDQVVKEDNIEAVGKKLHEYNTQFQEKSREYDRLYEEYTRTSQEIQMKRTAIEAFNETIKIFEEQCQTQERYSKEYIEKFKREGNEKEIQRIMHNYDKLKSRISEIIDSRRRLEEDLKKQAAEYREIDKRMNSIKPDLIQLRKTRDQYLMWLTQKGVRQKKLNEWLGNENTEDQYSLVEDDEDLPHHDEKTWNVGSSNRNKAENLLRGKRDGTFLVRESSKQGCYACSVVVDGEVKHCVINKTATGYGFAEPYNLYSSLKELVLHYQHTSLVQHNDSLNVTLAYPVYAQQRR
IC50 (PI3Kδ),IC50 (Pi3K γ),SMILES,maximum tolerated dose (MTD) [1]
> 10 µM,> 10 µM,"CC[C@@H](Nc1ncnc2[nH]cnc12)c1oc2ccccc2c(=O)c1-c1cccc(F)c1 [Compound A2, (R)-2-(1-(9H-purin-6-ylamino)propyl)-3-(3-fluorophenyl)-4H-chromen-4-one]",
,,C[C@H](Nc1ncnc2[nH]cnc12)c1cc2cccc(Cl)c2c(=O)n1-c1ccccc1 [IPI-45],75 mg BID

# — patent publication US11466006B2, “Dual selective PI3 delta and gamma kinase inhibitors” (Rhizen Pharmaceuticals SA, priority 2013, dated 2022)
